This is an account of results in PubChem BioAssay AID256 (DTP/NCI, 2004).

This assay concerns CD2F1 mice, L1210 leukemia ip, survival T/C. In words: NCI In Vivo Anticancer Drug Screen. Data for tumor model L1210 Leukemia (intraperitoneal) in CD2F1 (CDF1) mice. As to conditions: higher = longer survival. In outline: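 Mice carrying a transplanted tumor received test compound or vehicle alone. The value is the measurement in the treated group divided by that in the vehicle-treated control group.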

The mark [1] stands for this setting: endpoint: mean survival time, dose: 100.0 mg/kg/injection, schedule: Q04DX003 (ip), vehicle: saline.
Setting [2] is: endpoint: mean survival time, dose: 200.0 mg/kg/injection, schedule: Q04DX003 (ip), vehicle: saline.
Setting [3] is: endpoint: mean survival time, dose: 400.0 mg/kg/injection, schedule: Q04DX003 (ip), vehicle: saline.
[4] abbreviates: endpoint: mean survival time, dose: 100.0 mg/kg/injection, schedule: Q01DX001 (ip), vehicle: saline with Tween-80.
[5] abbreviates: endpoint: mean survival time, dose: 200.0 mg/kg/injection, schedule: Q01DX001 (ip), vehicle: saline with Tween-80.
Setting [6] is: endpoint: mean survival time, dose: 400.0 mg/kg/injection, schedule: Q01DX001 (ip), vehicle: saline with Tween-80.

“And” between values parts separate entries of the source, which are not always exact repeats. Identical values can stand only once. Toxic doses and inconclusive results are not listed.

As to `O=Nc1c(-c2ccccc2)n(O)[n+]([O-])c1-c1ccccc1`, the T/C runs as follows: (endpoint: mean survival time, dose: 50.0 mg/kg/injection, schedule: Q01DX009 (ip), vehicle: Klucel (hydroxypropylcellulose) (HPC)) 89 % of control; (endpoint: mean survival time, dose: 100.0 mg/kg/injection, schedule: Q01DX009 (ip), vehicle: Klucel (hydroxypropylcellulose) (HPC)) 89 % of control; (endpoint: mean survival time, dose: 200.0 mg/kg/injection, schedule: Q01DX009 (ip), vehicle: Klucel (hydroxypropylcellulose) (HPC)) 97 % of control.

Take `[NH-]C1CCCCC1[NH-].[NH-]C1CCCCC1[NH-].[Ni]` (stereo not given): the T/C (endpoint: mean survival time, dose: 100.0 mg/kg/injection, schedule: Q04DX002 (ip), vehicle: saline with Tween-80) is 110 % of control.

For the molecule `O=C(O)c1ccccc1Oc1ccccc1C(=O)O`, the T/C runs as follows: (endpoint: mean survival time, dose: 100.0 mg/kg/injection, schedule: Q01DX009 (ip), vehicle: saline) 101 % of control; (endpoint: mean survival time, dose: 200.0 mg/kg/injection, schedule: Q01DX009 (ip), vehicle: saline) 101 % of control; (endpoint: mean survival time, dose: 400.0 mg/kg/injection, schedule: Q01DX009 (ip), vehicle: saline) 94 % of control.

With `Cc1cccc(NNC(=S)Nc2ccccc2)c1`, the T/C reads like this: under setting [1], 94 % of control; under setting [2], 100 % of control; under setting [3], 100 % of control.

For the molecule `C[C@]12CC[C@@H]3c4ccc(OC(=O)Cc5ccc(N(CCCl)CCCl)cc5)cc4CC[C@H]3[C@@H]1CC[C@@H]2OC(=O)Cc1ccc(N(CCCl)CCCl)cc1`, the T/C (endpoint: median survival time, dose: 25.0 mg/kg/injection, schedule: Q01DX009 (ip), vehicle: Klucel (hydroxypropylcellulose) (HPC)) was 89 % of control; the T/C (endpoint: median survival time, dose: 50.0 mg/kg/injection, schedule: Q01DX009 (ip), vehicle: Klucel (hydroxypropylcellulose) (HPC)) is 92 % of control; the T/C (endpoint: median survival time, dose: 100.0 mg/kg/injection, schedule: Q01DX009 (ip), vehicle: Klucel (hydroxypropylcellulose) (HPC)) was 94 % of control; the T/C (endpoint: median survival time, dose: 200.0 mg/kg/injection, schedule: Q01DX009 (ip), vehicle: Klucel (hydroxypropylcellulose) (HPC)) was 92 % of control; the T/C (endpoint: median survival time, dose: 400.0 mg/kg/injection, schedule: Q01DX009 (ip), vehicle: Klucel (hydroxypropylcellulose) (HPC)) is 101 % of control.

On to `O=C1NC(=O)C2(CCN(CC3COc4ccccc4O3)CC2)N1c1ccccc1` (stereo not given), for which the T/C runs as follows: (endpoint: mean survival time, dose: 50.0 mg/kg/injection, schedule: Q01DX001 (ip), vehicle: saline with Tween-80) 96 % of control; under setting [4], 101 % of control; under setting [5], 96 % of control.

`NP(=O)(OCCCCOCc1ccccc1)N(CCCl)CCCl` (stereo not given): the T/C is, setting by setting: (endpoint: mean survival time, dose: 25.0 mg/kg/injection, schedule: Q01DX001 (ip), vehicle: other) 98 % of control; (endpoint: mean survival time, dose: 50.0 mg/kg/injection, schedule: Q01DX001 (ip), vehicle: other) 101 % of control; (endpoint: mean survival time, dose: 100.0 mg/kg/injection, schedule: Q01DX001 (ip), vehicle: other) 101 % of control; (endpoint: mean survival time, dose: 200.0 mg/kg/injection, schedule: Q01DX001 (ip), vehicle: other) 90 % of control; (endpoint: mean survival time, dose: 400.0 mg/kg/injection, schedule: Q01DX001 (ip), vehicle: other) 95 % of control.

Take `Nc1nc(N)c(N)c(/C=C/c2ccccc2)n1`: the T/C was 101 % of control (endpoint: mean survival time, dose: 0.32 mg/kg/injection, schedule: Q01DX009 (ip), vehicle: other); 106 % of control (endpoint: mean survival time, dose: 0.63 mg/kg/injection, schedule: Q01DX009 (ip), vehicle: other); 97 % of control (endpoint: mean survival time, dose: 0.63 mg/kg/injection, schedule: Q01DX009 (ip), vehicle: water); 98 % of control (endpoint: mean survival time, dose: 1.25 mg/kg/injection, schedule: Q01DX009 (ip), vehicle: other); 103 % of control (endpoint: mean survival time, dose: 1.25 mg/kg/injection, schedule: Q01DX009 (ip), vehicle: water); 101 % of control (endpoint: mean survival time, dose: 2.5 mg/kg/injection, schedule: Q01DX009 (ip), vehicle: other). Also, the T/C (endpoint: mean survival time, dose: 2.5 mg/kg/injection, schedule: Q01DX009 (ip), vehicle: water) was 97 % of control; the T/C (endpoint: mean survival time, dose: 5.0 mg/kg/injection, schedule: Q01DX009 (ip), vehicle: other) was 101 % of control; the T/C (endpoint: mean survival time, dose: 5.0 mg/kg/injection, schedule: Q01DX009 (ip), vehicle: water) is 97 % of control.

As to `CCCCC=CC1CCCCC1` (mixture of isomers), the T/C by setting is: under setting [1], 94 % of control; under setting [2], 94 % of control; under setting [3], 94 % of control.

For `CN(C(=O)N(CCCl)N=O)C1CCCCC1`, the T/C reads like this: (endpoint: mean survival time, dose: 16.0 mg/kg/injection, schedule: Q01DX001 (ip), vehicle: saline with Tween-80) 96 % of control; (endpoint: mean survival time, dose: 24.0 mg/kg/injection, schedule: Q01DX001 (ip), vehicle: saline with Tween-80) 98 % of control; (endpoint: mean survival time, dose: 36.0 mg/kg/injection, schedule: Q01DX001 (ip), vehicle: saline with Tween-80) 108 % of control; (endpoint: mean survival time, dose: 54.0 mg/kg/injection, schedule: Q01DX001 (ip), vehicle: saline with Tween-80) 110 % of control; (endpoint: mean survival time, dose: 80.0 mg/kg/injection, schedule: Q01DX001 (ip), vehicle: saline with Tween-80) 123 % of control; (endpoint: mean survival time, dose: 180.0 mg/kg/injection, schedule: Q01DX001 (ip), vehicle: saline with Tween-80) 236 % of control. The T/C reads like this: (endpoint: mean survival time, dose: 268.0 mg/kg/injection, schedule: Q01DX001 (ip), vehicle: saline with Tween-80) 396 % of control; under setting [6], 353 % of control.

`COC(=O)c1nc2ccccc2cc1C#N`: the T/C is, setting by setting: (endpoint: mean survival time, dose: 100.0 mg/kg/injection, schedule: Q01DX001 (ip), vehicle: saline) 97 % of control; (endpoint: mean survival time, dose: 200.0 mg/kg/injection, schedule: Q01DX001 (ip), vehicle: saline) 96 % of control.

As to `CC(=O)OCC1OC(OC(C)=O)C(NC(=S)N(C)N=O)C(OC(C)=O)C1OC(C)=O` (stereo not given), the T/C is 106 % of control (endpoint: mean survival time, dose: 12.5 mg/kg/injection, schedule: Q04DX002 (ip), vehicle: distilled water + Tween-80); 103 % of control (endpoint: mean survival time, dose: 25.0 mg/kg/injection, schedule: Q04DX002 (ip), vehicle: distilled water + Tween-80); 113 % of control (endpoint: mean survival time, dose: 50.0 mg/kg/injection, schedule: Q04DX002 (ip), vehicle: distilled water + Tween-80); 118 % of control and 120 % of control (endpoint: mean survival time, dose: 100.0 mg/kg/injection, schedule: Q04DX002 (ip), vehicle: distilled water + Tween-80).

With `O=[N+]([O-])c1cccn2nc(C3OC(CO)C(O)C3O)nc12` (stereo not given), the T/C (endpoint: mean survival time, dose: 12.5 mg/kg/injection, schedule: Q01DX005 (ip), vehicle: water) is 96 % of control; the T/C (endpoint: mean survival time, dose: 25.0 mg/kg/injection, schedule: Q01DX005 (ip), vehicle: water) is 97 % of control; the T/C (endpoint: mean survival time, dose: 50.0 mg/kg/injection, schedule: Q01DX005 (ip), vehicle: water) was 94 % of control; the T/C (endpoint: mean survival time, dose: 100.0 mg/kg/injection, schedule: Q01DX005 (ip), vehicle: water) is 100 % of control.

For `Cc1ccc(S(=O)(=O)N/N=C\c2cccnc2)cc1`, the T/C is 101 % of control (endpoint: mean survival time, dose: 12.5 mg/kg/injection, schedule: Q04DX003 (ip), vehicle: other); 101 % of control (endpoint: mean survival time, dose: 25.0 mg/kg/injection, schedule: Q04DX003 (ip), vehicle: other); 97 % of control (endpoint: mean survival time, dose: 50.0 mg/kg/injection, schedule: Q04DX003 (ip), vehicle: other); 101 % of control (endpoint: mean survival time, dose: 100.0 mg/kg/injection, schedule: Q04DX003 (ip), vehicle: other); 97 % of control (endpoint: mean survival time, dose: 200.0 mg/kg/injection, schedule: Q04DX003 (ip), vehicle: other); 98 % of control (endpoint: mean survival time, dose: 400.0 mg/kg/injection, schedule: Q04DX003 (ip), vehicle: other).

As for `CC1(C)N=C(N)N=C(N)N1c1ccc(CCCCc2ccc(S(=O)(=O)F)cc2)c(Cl)c1`, the T/C was 116 % of control (endpoint: mean survival time, dose: 13.0 mg/kg/injection, schedule: Q01DX009 (ip), vehicle: saline with Tween-80); 120 % of control (endpoint: mean survival time, dose: 20.0 mg/kg/injection, schedule: Q01DX009 (ip), vehicle: saline with Tween-80); 93 % of control (endpoint: mean survival time, dose: 45.0 mg/kg/injection, schedule: Q01DX009 (ip), vehicle: saline with Tween-80).

Take `c1ccc(COC2CN3CCC2CC3)cc1` (stereo not given): the T/C by setting is: (endpoint: mean survival time, dose: 25.0 mg/kg/injection, schedule: Q01DX009 (ip), vehicle: saline with Tween-80) 100 % of control; (endpoint: mean survival time, dose: 50.0 mg/kg/injection, schedule: Q01DX009 (ip), vehicle: saline with Tween-80) 100 % of control.

In the case of `CCOC(=O)N(CCCl)C(=O)C(C)C`, the T/C was 95 % of control under setting [1], 92 % of control under setting [2] and 97 % of control under setting [3].

On to `O=C1c2ccccc2SCCC1C(O)c1ccccc1` (stereo not given), for which the T/C is, setting by setting: under setting [4], 94 % of control; under setting [5], 94 % of control; under setting [6], 94 % of control.
